Source: ChEMBL document CHEMBL1909046, “DrugMatrix in vitro pharmacology data”

Experiments:
[1] = DRUGMATRIX: Nicotinic Acetylcholine radioligand binding (ligand: [125I] Epibatidine); type: cell membranes, Membrane; settings: imr-32; Not Active = under 50% inhibition at 10 µM
[2] = DRUGMATRIX: Atrial Natriuretic Factor (ANF) radioligand binding (ligand: [125I] ANF (rat)); type: cell membranes, Cavia porcellus, Dunkin-Hartley, Adrenal gland, Membrane; settings: Not Active = under 50% inhibition at 10 µM
Androgen receptor = target: T1, Androgen receptor (Rattus norvegicus, UniProt P15207); further: in other assays of this panel Not Active means under 50% inhibition at 10 µM
T1 sequence (P15207 whole entry): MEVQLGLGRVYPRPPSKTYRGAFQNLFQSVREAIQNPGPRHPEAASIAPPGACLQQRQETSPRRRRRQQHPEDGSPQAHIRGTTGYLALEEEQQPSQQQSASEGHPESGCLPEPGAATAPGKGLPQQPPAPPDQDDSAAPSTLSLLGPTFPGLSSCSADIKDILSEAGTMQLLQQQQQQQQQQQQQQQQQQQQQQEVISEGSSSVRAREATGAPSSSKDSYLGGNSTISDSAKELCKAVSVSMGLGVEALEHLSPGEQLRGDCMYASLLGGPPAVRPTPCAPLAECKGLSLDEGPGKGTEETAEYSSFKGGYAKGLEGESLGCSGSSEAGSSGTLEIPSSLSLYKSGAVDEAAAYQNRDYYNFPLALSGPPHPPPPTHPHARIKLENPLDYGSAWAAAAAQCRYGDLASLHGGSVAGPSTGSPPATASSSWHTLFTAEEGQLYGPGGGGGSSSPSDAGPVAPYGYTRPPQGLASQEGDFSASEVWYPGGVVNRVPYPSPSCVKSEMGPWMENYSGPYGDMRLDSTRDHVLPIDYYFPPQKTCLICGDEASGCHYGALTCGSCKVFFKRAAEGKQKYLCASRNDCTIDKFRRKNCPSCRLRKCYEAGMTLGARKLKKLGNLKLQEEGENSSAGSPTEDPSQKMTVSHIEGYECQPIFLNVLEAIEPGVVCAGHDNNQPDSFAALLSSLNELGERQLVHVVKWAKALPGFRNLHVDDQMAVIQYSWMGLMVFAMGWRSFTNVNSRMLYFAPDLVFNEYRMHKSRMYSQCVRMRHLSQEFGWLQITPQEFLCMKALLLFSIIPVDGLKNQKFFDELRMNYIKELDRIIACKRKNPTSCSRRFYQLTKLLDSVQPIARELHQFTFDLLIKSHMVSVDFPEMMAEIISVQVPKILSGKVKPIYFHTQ

Cytochrome P450 2C9 = Cytochrome P450 2C9 (Homo sapiens, UniProt P11712); further: in other assays of this panel Not Active means under 50% inhibition at 10 µM
Chain of Cytochrome P450 2C9 (P11712 whole entry): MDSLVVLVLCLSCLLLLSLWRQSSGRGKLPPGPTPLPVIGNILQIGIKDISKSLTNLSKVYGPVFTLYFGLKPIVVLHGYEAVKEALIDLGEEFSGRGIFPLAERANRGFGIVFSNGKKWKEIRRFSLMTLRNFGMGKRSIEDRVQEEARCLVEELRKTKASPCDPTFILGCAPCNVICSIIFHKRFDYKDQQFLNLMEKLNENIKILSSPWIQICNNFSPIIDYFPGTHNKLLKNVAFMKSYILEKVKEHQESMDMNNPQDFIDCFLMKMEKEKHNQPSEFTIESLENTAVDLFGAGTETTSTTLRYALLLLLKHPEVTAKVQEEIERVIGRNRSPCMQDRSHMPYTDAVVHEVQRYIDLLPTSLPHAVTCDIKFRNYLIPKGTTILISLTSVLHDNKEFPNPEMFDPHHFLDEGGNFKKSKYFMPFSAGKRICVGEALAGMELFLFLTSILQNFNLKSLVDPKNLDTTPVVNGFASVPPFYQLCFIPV

Adenosine receptor A3 = target: T2, Adenosine receptor A3 (Homo sapiens, UniProt P0DMS8); type: cell membranes, CHO-K1, Membrane;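 further: radioligand binding assay with AB-MECA serving as the labeled ligand; in other assays of this panel Not Active means under 50% inhibition at 10 µM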
T2 sequence (P0DMS8 whole entry): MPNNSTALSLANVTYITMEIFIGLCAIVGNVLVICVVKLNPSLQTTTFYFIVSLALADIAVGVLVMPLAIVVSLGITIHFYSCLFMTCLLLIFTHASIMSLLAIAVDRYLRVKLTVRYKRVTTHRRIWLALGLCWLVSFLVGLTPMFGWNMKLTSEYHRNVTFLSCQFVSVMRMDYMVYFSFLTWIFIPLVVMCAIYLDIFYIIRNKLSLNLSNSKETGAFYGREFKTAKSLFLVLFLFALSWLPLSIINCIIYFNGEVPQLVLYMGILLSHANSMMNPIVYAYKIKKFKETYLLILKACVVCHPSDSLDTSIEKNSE

Cytochrome P450 2C19 = Cytochrome P450 2C19 (Homo sapiens, UniProt P33261); further: in other assays of this panel Not Active means under 50% inhibition at 10 µM
Chain of Cytochrome P450 2C19 (P33261 whole entry): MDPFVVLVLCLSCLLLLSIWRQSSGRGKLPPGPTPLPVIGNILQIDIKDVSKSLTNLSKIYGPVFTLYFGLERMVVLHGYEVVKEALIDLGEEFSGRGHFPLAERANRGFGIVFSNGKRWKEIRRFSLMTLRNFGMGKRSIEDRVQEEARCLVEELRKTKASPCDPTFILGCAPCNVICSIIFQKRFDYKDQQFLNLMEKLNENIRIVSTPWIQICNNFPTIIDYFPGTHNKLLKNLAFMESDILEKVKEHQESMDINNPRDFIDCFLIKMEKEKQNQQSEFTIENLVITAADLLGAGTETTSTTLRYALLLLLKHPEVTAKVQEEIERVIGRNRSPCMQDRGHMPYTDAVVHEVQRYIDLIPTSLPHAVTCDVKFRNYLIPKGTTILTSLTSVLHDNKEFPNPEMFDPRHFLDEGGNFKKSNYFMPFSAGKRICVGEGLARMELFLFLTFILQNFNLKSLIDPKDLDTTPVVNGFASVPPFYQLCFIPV

Cytochrome P450 2D6 = Cytochrome P450 2D6 (Homo sapiens, UniProt P10635); further: in other assays of this panel Not Active means under 50% inhibition at 10 µM
Chain of Cytochrome P450 2D6 (P10635 whole entry): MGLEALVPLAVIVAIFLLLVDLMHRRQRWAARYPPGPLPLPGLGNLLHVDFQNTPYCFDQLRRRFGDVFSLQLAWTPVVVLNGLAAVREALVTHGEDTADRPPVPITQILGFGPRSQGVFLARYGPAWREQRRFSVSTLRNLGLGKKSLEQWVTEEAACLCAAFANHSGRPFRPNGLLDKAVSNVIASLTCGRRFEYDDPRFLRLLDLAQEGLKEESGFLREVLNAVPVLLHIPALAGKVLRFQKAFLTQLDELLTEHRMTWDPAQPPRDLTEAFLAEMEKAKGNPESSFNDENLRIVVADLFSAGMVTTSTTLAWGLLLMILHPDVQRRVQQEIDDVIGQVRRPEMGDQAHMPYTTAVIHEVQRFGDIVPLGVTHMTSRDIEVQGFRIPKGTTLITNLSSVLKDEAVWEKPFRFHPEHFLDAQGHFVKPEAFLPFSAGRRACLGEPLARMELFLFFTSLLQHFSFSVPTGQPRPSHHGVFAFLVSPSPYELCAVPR

Glucocorticoid receptor = target: T3, Glucocorticoid receptor (Homo sapiens, UniProt P04150); assay: biochemical; further: in other assays of this panel Not Active means under 50% inhibition at 10 µM
T3 sequence (P04150 whole entry): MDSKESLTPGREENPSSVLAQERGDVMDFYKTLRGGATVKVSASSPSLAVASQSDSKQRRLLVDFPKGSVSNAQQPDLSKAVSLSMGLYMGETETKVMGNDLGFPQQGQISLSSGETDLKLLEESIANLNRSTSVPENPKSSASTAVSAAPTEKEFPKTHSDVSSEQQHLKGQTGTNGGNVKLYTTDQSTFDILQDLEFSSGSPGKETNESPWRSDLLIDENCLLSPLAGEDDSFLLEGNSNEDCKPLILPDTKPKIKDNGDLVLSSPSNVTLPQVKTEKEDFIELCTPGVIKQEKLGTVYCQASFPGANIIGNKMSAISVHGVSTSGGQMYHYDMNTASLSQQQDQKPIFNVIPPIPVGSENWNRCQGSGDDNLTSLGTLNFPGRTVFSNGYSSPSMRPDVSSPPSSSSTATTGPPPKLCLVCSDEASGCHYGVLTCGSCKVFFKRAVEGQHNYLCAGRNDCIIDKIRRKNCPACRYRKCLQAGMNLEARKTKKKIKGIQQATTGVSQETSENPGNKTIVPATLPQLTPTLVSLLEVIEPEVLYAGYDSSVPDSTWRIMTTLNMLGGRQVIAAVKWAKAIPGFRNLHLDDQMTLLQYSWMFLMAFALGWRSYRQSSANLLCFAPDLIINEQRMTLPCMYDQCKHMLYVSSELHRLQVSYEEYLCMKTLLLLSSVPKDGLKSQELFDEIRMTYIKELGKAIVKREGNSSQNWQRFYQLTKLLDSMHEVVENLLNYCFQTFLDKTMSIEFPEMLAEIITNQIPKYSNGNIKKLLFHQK

Cytochrome P450 1A2 = target: T4, Cytochrome P450 1A2 (Homo sapiens, UniProt P05177); further: in other assays of this panel Not Active means under 50% inhibition at 10 µM
T4 sequence (P05177 whole entry): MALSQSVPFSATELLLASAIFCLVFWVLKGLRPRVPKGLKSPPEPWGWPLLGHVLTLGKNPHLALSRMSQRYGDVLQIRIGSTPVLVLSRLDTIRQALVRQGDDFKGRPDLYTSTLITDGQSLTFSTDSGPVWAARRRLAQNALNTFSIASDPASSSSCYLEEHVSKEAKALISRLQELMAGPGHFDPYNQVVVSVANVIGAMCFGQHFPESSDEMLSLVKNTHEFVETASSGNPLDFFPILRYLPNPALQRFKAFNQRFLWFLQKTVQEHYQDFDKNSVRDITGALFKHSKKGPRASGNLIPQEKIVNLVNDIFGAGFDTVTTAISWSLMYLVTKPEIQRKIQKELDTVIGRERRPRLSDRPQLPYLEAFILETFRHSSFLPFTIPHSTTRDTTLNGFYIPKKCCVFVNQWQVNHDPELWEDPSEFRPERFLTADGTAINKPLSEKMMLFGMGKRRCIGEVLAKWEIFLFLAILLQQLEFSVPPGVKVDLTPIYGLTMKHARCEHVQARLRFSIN

[3] = target: Voltage-gated inwardly rectifying potassium channel KCNH2 (Homo sapiens, UniProt Q12809); further: in other assays of this panel Not Active means under 50% inhibition at 10 µM
Chain of Voltage-gated inwardly rectifying potassium channel KCNH2 (Q12809 whole entry): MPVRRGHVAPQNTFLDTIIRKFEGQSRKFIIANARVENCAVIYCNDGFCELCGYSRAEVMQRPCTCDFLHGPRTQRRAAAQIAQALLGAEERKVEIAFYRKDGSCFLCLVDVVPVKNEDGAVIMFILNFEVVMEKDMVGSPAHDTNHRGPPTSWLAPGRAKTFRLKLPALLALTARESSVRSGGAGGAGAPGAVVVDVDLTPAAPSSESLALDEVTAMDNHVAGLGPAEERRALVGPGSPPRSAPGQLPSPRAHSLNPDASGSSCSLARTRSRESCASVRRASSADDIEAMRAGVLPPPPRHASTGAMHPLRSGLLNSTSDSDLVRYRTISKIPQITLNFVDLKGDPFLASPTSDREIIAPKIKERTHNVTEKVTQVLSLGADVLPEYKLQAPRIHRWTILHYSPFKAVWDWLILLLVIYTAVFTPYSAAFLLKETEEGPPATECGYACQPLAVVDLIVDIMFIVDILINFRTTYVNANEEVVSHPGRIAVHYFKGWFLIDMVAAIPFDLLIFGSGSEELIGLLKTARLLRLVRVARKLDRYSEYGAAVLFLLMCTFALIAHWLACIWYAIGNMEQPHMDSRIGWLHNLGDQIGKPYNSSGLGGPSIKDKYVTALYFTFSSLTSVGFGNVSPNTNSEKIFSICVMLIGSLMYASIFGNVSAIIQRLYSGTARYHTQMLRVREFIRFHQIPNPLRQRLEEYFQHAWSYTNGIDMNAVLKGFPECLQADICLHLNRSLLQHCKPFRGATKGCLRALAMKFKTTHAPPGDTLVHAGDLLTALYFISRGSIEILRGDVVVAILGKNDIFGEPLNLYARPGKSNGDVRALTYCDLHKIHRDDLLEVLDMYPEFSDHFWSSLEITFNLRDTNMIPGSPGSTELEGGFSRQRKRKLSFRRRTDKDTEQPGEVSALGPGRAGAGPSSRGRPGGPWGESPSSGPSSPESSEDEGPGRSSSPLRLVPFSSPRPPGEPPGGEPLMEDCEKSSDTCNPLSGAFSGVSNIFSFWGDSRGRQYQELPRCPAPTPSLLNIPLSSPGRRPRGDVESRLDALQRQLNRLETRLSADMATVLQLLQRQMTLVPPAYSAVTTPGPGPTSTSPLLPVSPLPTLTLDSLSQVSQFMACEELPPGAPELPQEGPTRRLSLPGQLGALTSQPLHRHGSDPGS

Row | Molecule | IC50 [1] | Ki [1] | IC50 [2] | Ki [2] | IC50 (Androgen receptor) | IC50 (Cytochrome P450 2C9) | IC50 (Adenosine receptor A3; cho-k1) | IC50 (Cytochrome P450 2C19) | IC50 (Cytochrome P450 2D6) | IC50 (Glucocorticoid receptor) | Ki (Glucocorticoid receptor) | IC50 (Cytochrome P450 1A2) | IC50 (Adenosine receptor A3; read-out: IC50) | Ki (Adenosine receptor A3; read-out: Ki) | IC50 [3] | Ki [3] | Ki (Androgen receptor) | Ki (Adenosine receptor A3; cho-k1)
1 | O=C(c1ccccc1C(F)(F)F)N1CCC(Cc2ccccc2)CC1 | Not Active | Not Active | Not Active | Not Active | Not Active | 2 µM | Not Active | 0.4 µM |  |  |  |  |  |  |  |  |  | 
2 | COc1ccc2cc3[n+](cc2c1OC)CCc1cc2c(cc1-3)OCO2.[Cl-] [BERBERINE CHLORIDE] | Not Active | Not Active | Not Active | Not Active |  |  | Not Active |  | 4.5 µM |  |  |  |  |  |  |  |  | 
3 | CC(=O)Oc1ccc(C(c2ccc(OC(C)=O)cc2)c2ccccn2)cc1 [BISACODYL] | Not Active | Not Active | Not Active | Not Active | Not Active | 10 µM | Not Active |  |  |  |  |  |  |  |  |  |  | 
4 | Cc1cc2c(OCC(CNC(C)(C)C)OC(=O)c3ccccc3)cccc2[nH]1 (stereo unspecified) [BOPINDOLOL] | Not Active | Not Active | Not Active | Not Active |  |  | Not Active |  | 5.48 µM |  |  |  |  |  |  |  |  | 
5 | CCC(=O)O[C@]1(C(=O)CCl)[C@@H](C)C[C@H]2[C@@H]3CCC4=CC(=O)C=C[C@]4(C)[C@@]3(F)[C@@H](O)C[C@@]21C [CLOBETASOL PROPIONATE] | Not Active | Not Active | Not Active | Not Active |  |  | Not Active |  |  | 0.00146 µM | 0.000662 µM |  |  |  |  |  |  | 
6 | C[C@@H]1C[C@H]2[C@@H]3CCC4=CC(=O)C=C[C@]4(C)[C@@]3(F)[C@@H](O)C[C@]2(C)[C@H]1C(=O)CO [DESOXIMETASONE] | Not Active | Not Active | Not Active | Not Active |  |  | Not Active |  |  | 0.00257 µM | 0.00117 µM |  |  |  |  |  |  | 
7 | OC(CCCN1CCCCC1)(c1ccccc1)c1ccccc1 [DIPHENIDOL] | Not Active | Not Active | Not Active | Not Active | Not Active |  | Not Active |  | 0.326 µM |  |  |  |  |  |  |  |  | 
8 | Oc1c(Cl)cc(Cl)c(Cl)c1Cc1c(O)c(Cl)cc(Cl)c1Cl [HEXACHLOROPHENE] | Not Active | Not Active | Not Active | Not Active |  |  |  | 1.23 µM |  |  |  | 1.31 µM | 0.639 µM | 0.361 µM |  |  |  | 
9 | CC(=O)[C@@]1(O)CC[C@H]2[C@@H]3CCC4=CC(=O)CC[C@]4(C)[C@H]3CC[C@@]21C [HYDROXYPROGESTERONE] | Not Active | Not Active | Not Active | Not Active |  |  |  |  |  | 0.051 µM | 0.023 µM |  | 4.73 µM | 2.67 µM |  |  |  | 
10 | COC1=C(OC)C(=O)C(CCCCCCCCCCO)=C(C)C1=O [IDEBENONE] | Not Active | Not Active | Not Active | Not Active | Not Active | 5 µM | Not Active | 0.8 µM | 3 µM |  |  |  |  |  |  |  |  | 
11 | Cc1c(OCC(F)(F)F)ccnc1C[S+]([O-])c1nc2ccccc2[nH]1 (stereo unspecified) [LANSOPRAZOLE] | Not Active | Not Active | Not Active | Not Active |  |  | Not Active | 0.337 µM | 5.31 µM |  |  |  |  |  |  |  |  | 
12 | O=c1cc(N2CCOCC2)oc2c(-c3ccccc3)cccc12 [LY-294002] | Not Active | Not Active | Not Active | Not Active | Not Active |  | Not Active |  |  |  |  | 1 µM |  |  |  |  |  | 
13 | CCN(CC)CCOCCC1=CCC2CC1C2(C)C (stereo unspecified) [MYRTECAINE] | Not Active | Not Active | Not Active | Not Active | Not Active |  | Not Active |  |  |  |  |  |  |  | 5.9 µM | 4.84 µM |  | 
14 | O=C(N/N=C/c1ccc([N+](=O)[O-])o1)c1cc([N+](=O)[O-])cc([N+](=O)[O-])c1O [NIFURSOL] | Not Active | Not Active | Not Active | Not Active |  | 7 µM | Not Active | 5 µM |  |  |  |  |  |  |  |  |  | 
15 | C#CC1(O)CC[C@H]2[C@@H]3CCC4=CC(=O)CC[C@@H]4[C@H]3CC[C@@]21CC (stereo partly specified) [NORGESTREL] | Not Active | Not Active | Not Active | Not Active |  |  | Not Active |  |  | 0.149 µM | 0.068 µM |  |  |  |  |  |  | 
16 | COc1cc2nc(N3CCN(C(=O)c4ccco4)CC3)nc(N)c2cc1OC [PRAZOSIN] | Not Active | Not Active | Not Active | Not Active |  |  | Not Active |  |  |  |  |  |  |  | 24.3 µM | 19.9 µM |  | 
17 | CC(=O)[C@H]1[C@H](C#N)C[C@H]2[C@@H]3CC=C4C[C@@H](O)CC[C@]4(C)[C@H]3CC[C@@]21C [PREGNENOLONE CARBONITRILE] | Not Active | Not Active | Not Active | Not Active |  |  | Not Active |  |  | 14 µM | 6.34 µM |  |  |  |  |  |  | 
18 | NYSTATIN | Not Active | Not Active | Not Active | Not Active | Not Active |  | Not Active |  |  |  |  |  |  |  |  |  | Not Active | Not Active
